From patent US5455348A, “2-pyrrolidinones, pharmaceutical compositions containing these compounds and processes for preparing them” (Thomae; Karl, priority 1991, dated 1995)
Where a name gives a salt, the structure may show the parent alone. Read-outs that look alike come from different tables or passages of the source.

Experiments:
[1] = target: fibrinogen binding to human thrombocytes; assay: Fibrinogen binding to human thrombocytes; conditions: gel-filtered human platelets, 125I fibrinogen, ADP, 20 minutes, ambient temperature; read-out: Fibrinogen-binding test IC50
Procedure: The blood obtained by puncturing an antecubital vein is anticoagulated with trisodium citrate (final concentration: 13 mM) and centrifuged for 10 minutes at 170×g. The supernatant platelet-rich plasma is poured onto a Sepharose 2B column (Pharmacia) and eluted with a solution of 90 mM common salt, 14 mM trisodium citrate, 5 mM glucose and 50 mM Tris(hydroxymethyl)aminomethane, adjusted to pH 7.4. The gel-filtered platelets (GFP) appearing before the plasma proteins are used for the binding experiments.
50 μl of a 60 mM calcium chloride solution, 50 μl of a 0.6 mM adenosine diphosphate solution, 100 μl of substance solution or solvent and 50 μl of fibrinogen solution (containing 3 μg of ^125 I fibrinogen) are added to 750 μl of GFP and incubated for 20 minutes at ambient temperature. The non-specific binding is determined in the presence of 3 mg/ml of cold fibrinogen.
900 μl of the incubated material are carefully pipetted onto 250 μl of silicon oil (AP 38: AR 20, 1:2 v/v, Wacker Chemie) in Eppendorf tubes and centrifuged for 2 minutes at 10,000×g. The aqueous supernatant and some of the oil are drawn off, the tips of the tubes are cut off together with the platelet pellet and the quantity of bound fibrinogen is determined in a gamma counter. The concentration of substance which brings about a 50% inhibition in fibrinogen binding is determined from a series of concentrations and is given as the IC50 value.

[2] = test system: collagen-induced thrombocyte aggregation in platelet-rich plasma; assay: Collagen-induced platelet aggregation in platelet-rich plasma (Born and Cross method); format: cell-based, healthy volunteers (human); conditions: read-out: Inhibition of platelet aggregation EC50
Procedure: The thrombocyte aggregation is measured using the Born and Cross method (J. Physiol. 170: 397 (1964)) in platelet-rich plasma taken from healthy volunteers. To inhibit coagulation the blood is mixed with 3.14% sodium citrate in a ratio by volume of 1:10.
Collagen-induced aggregation
The pattern of the decrease in optical density of the platelet suspension is photometrically measured and recorded after the addition of aggregation-triggering substance. The rate of aggregation is concluded from the angle of inclination of the density curve. The point on the curve where there is maximum light transmittance is used to calculate the optical density.
The amount of collagen used is as small as possible but sufficient to produce an irreversible reaction curve. Standard commercial collagen produced by Hormonchemie of Munich is used. Before the addition of the collagen the plasma is incubated for 10 minutes with the substance at 37° C.
From the measurements obtained an EC50 is determined graphically, indicating a 50% change in the optical density in terms of the inhibition of aggregation.

[3] = test system: collagen-induced thrombocyte aggregation; assay: Inhibition of collagen-induced thrombocyte aggregation ex vivo after oral administration; format: in vivo; conditions: Rhesus monkeys, oral administration of 1 mg/kg
Procedure: Moreover, the compound of Example 5, for example, inhibits the collagen-induced thrombocyte aggregation ex vivo in Rhesus monkeys for more than 8 hours after oral administration of 1 mg/kg.

[4] = Tolerance after intravenous administration; format: in vivo; conditions: intravenous administration of 30 mg/kg to three mice
[5] = collagen-induced, human platelet-rich plasma, 10 minutes preincubation at 37° C.

N=C(N)c1ccc(-c2ccc(NC[C@@H]3C[C@@H](CC(=O)O)C(=O)N3)nn2)cc1 [Example 4(13), (3S,5S)-5-[[6-(4-amidinophenyl)-3-pyridazinyl]aminomethyl]-3-carboxymethyl-2-pyrrolidinone]
IC50 [1]: 59 nM | EC50 [2, 5]: 590 nM

COC(=O)C[C@@H]1C[C@@H](COc2ccc(-c3ccc(C(=N)NC(=O)OC)cn3)cc2)NC1=O [Example 5, (3S,5S)-5-[[4-[5-(N-Methoxycarbonylamidino)-2-pyridyl]phenyl]oxymethyl]-3-[(methoxycarbonyl)methyl]-2-pyrrolidinone]
inhibits the collagen-induced thrombocyte aggregation ex vivo for (duration) [3]: more than 8 hours

N=C(N)c1ccc(-c2ccc(OC[C@@H]3C[C@@H](CC(=O)O)CN3C(=O)c3cccnc3)cc2)cc1 [Example 4(4), (3S,5S)-5-[(4'-amidino-4-biphenylyl)oxymethyl]-3-carboxymethyl-1-nicotinoyl-pyrrolidine]
IC50 [1]: 140 nM | EC50 [2, 5]: 210 nM

N=C(N)c1ccc(-c2ccc(OC[C@@H]3C[C@@H](CC(=O)O)C(=O)N3c3cccnc3)cc2)cc1 [Example 4(6), (3S,5S)-5-[(4'-amidino-4-biphenylyl)oxymethyl]-3-carboxymethyl-1-(3-pyridyl)-2-pyrrolidinone×1.2 H2 O]
IC50 [1]: 31 nM | EC50 [2, 5]: 160 nM

O=C(O)C[C@@H]1C[C@@H](CCNC(=O)c2ccc(C3CCNCC3)cc2)N(CCCc2ccccc2)C1=O [Example 12(6), (3S,5S)-3-carboxymethyl-1-(3-phenylpropyl)-5-[2-[[4-(4-piperidinyl)phenyl]carbonylamino]ethyl]-2-pyrrolidinone×0.75 H2 O]
IC50 [1]: 570 nM | EC50 [2, 5]: 3800 nM

N=C(N)c1ccc(-c2ccc(OC[C@@H]3C[C@@H](CC(=O)O)CN3c3ncccn3)cc2)cc1 [Example 4(2), (3S,5S)-5-[(4'-amidino-4-biphenylyl)oxymethyl]-3-carboxymethyl-1-(2-pyrimidyl)-pyrrolidine×0.25 HCl×0.4 H2 O]
IC50 [1]: 200 nM | EC50 [2, 5]: 540 nM

N=C(N)N1Cc2ccc(C(=O)NCC[C@@H]3C[C@@H](CC(=O)O)C(=O)N3CCCc3ccccc3)cc2C1 [Example 11, (3S,5S)-5-[2-[(2-amidino-5-isoindolinyl)carbonylamino]ethyl]-3-carboxymethyl-1-(3-phenylpropyl)-2-pyrrolidinone]
IC50 [1]: 270 nM | EC50 [2, 5]: 890 nM

N=C(N)c1ccc(-c2ccc(OC[C@@H]3C[C@@H](CC(=O)O)C(=O)N3)cc2)nc1 [Example 1, (3S,5S)-5-[[4-(5-amidino-2-pyridyl)phenyl]oxymethyl]-3-carboxymethyl-2-pyrrolidinone]
animals died [4]: no animals died | EC50 [2, 5]: 60 nM

N=C(N)c1ccc2c(c1)CCN(C(=O)NCC[C@@H]1C[C@@H](CC(=O)O)C(=O)N1CCCc1ccccc1)CC2 [Example 4(8), (3S,5S)-5-[2-[(7-amidino-1H-2,3,4,5-tetrahydro-3-benzazepin-3-yl)carbonylamino]ethyl]-3-carboxymethyl-1-(3-phenylpropyl)-2-pyrrolidinone×2 H2 O]
IC50 [1]: 770 nM | EC50 [2, 5]: 5500 nM

N=C(N)c1ccc(NC(=O)c2cccn(C[C@@H]3C[C@@H](CC(=O)O)C(=O)N3CCCc3ccccc3)c2=O)cc1 [4(18)]
IC50 [1]: 55 nM | animals died [4]: no animals died | EC50 ([2]; Homo sapiens, Platelet): 430 nM

N=C(N)c1cnc(-c2ccc(OC[C@@H]3C[C@@H](CC(=O)O)C(=O)N3)cc2)s1 [Example 1(3), (3S,5S)-5-[[4-(5-amidino-2-thiazolyl)phenyl]oxymethyl]-3-carboxymethyl-2-pyrrolidinone×0.6 H2 O]
IC50 [1]: 42 nM | EC50 [2, 5]: 100 nM

COC(=O)C[C@@H]1C[C@@H](COc2ccc(-c3ccc(C(=N)N)cc3)cc2)N(c2cccnc2)C1=O [Example 6(3), (3S,5S)-5-[(4'-amidino-4-biphenylyl)oxymethyl]-3-[(methoxycarbonyl)methyl]-1-(3-pyridyl)-2-pyrrolidinone×1.2 HCl×1 H2 O]
IC50 [1]: 13000 nM | EC50 [2, 5]: 2500 nM

N=C(N)c1ccc(-c2ccc(OC[C@@H]3C[C@@H](CC(=O)O)C(=O)N3CCCc3ccccc3)nn2)cc1 [Example 4(11)]
IC50 [1]: 32 nM | EC50 [2, 5]: 100 nM

Cn1nc(-c2ccc(C(=N)N)cc2)cc(C(=O)NC[C@@H]2C[C@@H](CC(=O)O)C(=O)N2)c1=O [Example 4(15), (3S,5S)-5-[[[6-(4-amidinophenyl)-2-methyl-3(2H)-pyridazinon-4-yl]carbonyl]aminomethyl]-3-carboxymethyl-2-pyrrolidinone]
IC50 [1]: 590 nM | EC50 [2, 5]: 3000 nM

Nc1nccc2cc(-c3ccc(OC[C@@H]4C[C@@H](CC(=O)O)C(=O)N4)cc3)ccc12 [Example 4(3), (3S,5S)-5-[[4-(1-amino-6-isoquinolinyl)phenyl]oxymethyl]-3-carboxymethyl-2-pyrrolidinone-hydrochloride]
IC50 [1]: 160 nM | EC50 [2, 5]: 38000 nM
